# Patent publication US11932639B2, “Fused ring heteroaryl compounds as ALK4/5 inhibitors” (BiSiChem Co., Ltd., priority 2019, dated 2024)
# pIC50: −log10 of the molar value.
# Target: T1, ALK5 (Homo sapiens, UniProt P36897)
# T1 construct: endogenous in cells; host or cells: Hs578T (ATCC HTB-22), inferred as the cells of the reporter assay
# T1 sequence (P36897 34-503): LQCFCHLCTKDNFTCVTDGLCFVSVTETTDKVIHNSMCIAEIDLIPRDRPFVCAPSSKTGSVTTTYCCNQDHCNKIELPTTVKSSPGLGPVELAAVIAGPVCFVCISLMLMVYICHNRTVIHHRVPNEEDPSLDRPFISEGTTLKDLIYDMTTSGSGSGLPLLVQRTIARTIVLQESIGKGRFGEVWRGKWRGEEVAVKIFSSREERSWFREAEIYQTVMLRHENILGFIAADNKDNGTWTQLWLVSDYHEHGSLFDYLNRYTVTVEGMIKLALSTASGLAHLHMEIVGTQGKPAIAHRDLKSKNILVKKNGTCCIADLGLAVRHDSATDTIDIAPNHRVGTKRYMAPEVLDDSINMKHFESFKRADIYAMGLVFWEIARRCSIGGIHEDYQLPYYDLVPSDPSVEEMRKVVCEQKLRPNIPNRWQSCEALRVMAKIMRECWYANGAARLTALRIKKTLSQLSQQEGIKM
# Test: Cell-based luciferase reporter assay for ALK5 activity
# Conditions: (CAGA)-12-luciferase reporter, Smad 2/3-responsive promoter, 2 ng/ml TGF-β1 stimulation for 12 hours; read-out: Relative luciferase activity: IC50 value
# Experimental: Human cancer cell lines Hs578T (ATCC® HTB-22™) cells were grown in DMEM (Dulbecco's modified Eagle's medium) supplemented with 10% fetal bovine serum and 1% mixture of penicillin and streptomycin (Gibco). Cells were maintained at 37° C. in a humidified 5% CO2 atmosphere.
# Cell-Based Luciferase Reporter Assay for ALK5 Activity
# Cells were seeded at 3×10^4/well in 24-well plates were transiently transfected with 500 ng of (CAGA)-12-luciferase reporter construct and 5 ng of pRL-TK Renilla luciferase vector (Promega, Madison, WI), an internal control for transfection efficiency, using Lipofectamine 3000 reagent (Thermo Fisher Scientific, Waltham, USA). After 24 h transfection, the cells were pre-treated with ALK5 inhibitor in dose-dependent manner. And then, Cells stimulated with 2 ng/ml recombinant TGF-β1 for 12 hours. After the stimulation, the firefly and Renilla luciferase activities were measured by Dual-Luciferase Repoter Assay (Promega).
row,pIC50,SMILES
1,7.00 to 8.00,"Cc1cccc(-c2[nH]c(CNc3cccc(Cl)c3F)nc2-c2ccn3nccc3c2)n1 [Example 1, 3-chloro-2-fluoro-N-((5-(6-methylpyridin-2-yl)-4-(pyrazolo[1,5-a]pyridin-5-yl)-1H-imidazol-2-yl)methyl)aniline]"
2,> 8.00,"Cc1cccc(-c2[nH]c(CNc3ccc(Cl)c(Cl)c3)nc2-c2ccn3nccc3c2)n1 [Example 2, 3,4-dichloro-N-((5-(6-methylpyridin-2-yl)-4-(pyrazolo[1,5-a]pyridin-5-yl)-1H-imidazol-2-yl)methyl)aniline]"
3,7.00 to 8.00,"Cc1cccc(-c2[nH]c(CNc3ccccc3F)nc2-c2ccn3ncnc3c2)n1 [Example 3, N-((4-([1,2,4]triazolo[1,5-a]pyridin-7-yl)-5-(6-methylpyridin-2-yl)-1H-imidazol-2-yl)methyl)-2-fluoroaniline]"
4,> 8.00,"Cc1cccc(-c2[nH]c(CNc3cccc(Cl)c3F)nc2-c2ccn3ncnc3c2)n1 [Example 4, N-((4-([1,2,4]triazolo[1,5-a]pyridin-7-yl)-5-(6-methylpyridin-2-yl)-1H-imidazol-2-yl)methyl)-3-chloro-2-fluoroaniline]"
5,> 8.00,"Cc1cccc(-c2[nH]c(CNc3ccc(Cl)c(Cl)c3)nc2-c2ccn3ncnc3c2)n1 [Example 5, N-((4-([1,2,4]triazolo[1,5-a]pyridin-7-yl)-5-(6-methylpyridin-2-yl)-1H-imidazol-2-yl)methyl)-3,4-dichloroaniline]"
6,7.00 to 8.00,"Cc1cccc(-c2[nH]c(NCc3ccccc3F)nc2-c2ccn3nccc3c2)n1 [Example 6, N-(2-fluorobenzyl)-5-(6-methylpyridin-2-yl)-4-(pyrazolo[1,5-a]pyridine-5-yl)-1H-imidazol-2-amine]"
7,7.00 to 8.00,"Cc1cccc(-c2[nH]c(NCc3cccc(F)c3)nc2-c2ccn3nccc3c2)n1 [Example 7, N-(3-fluorobenzyl)-5-(6-methylpyridin-2-yl)-4-(pyrazolo[1,5-a]pyridine-5-yl)-1H-imidazol-2-amine]"
8,7.00 to 8.00,"Cc1cccc(-c2[nH]c(NCc3cccc(Cl)c3F)nc2-c2ccn3nccc3c2)n1 [Example 8, N-(3-chloro-2-fluorobenzyl)-5-(6-methylpyridin-2-yl)-4-(pyrazolo[1,5-a]pyridin-5-yl)-1H-imidazol-2-amine]"
9,> 8.00,"Cc1cccc(-c2[nH]c(NCc3ccc(Cl)cc3F)nc2-c2ccn3nccc3c2)n1 [Example 9, N-(4-chloro-2-fluorobenzyl)-5-(6-methylpyridin-2-yl)-4-(pyrazolo[1,5-a]pyridin-5-yl)-1H-imidazol-2-amine]"
10,7.00 to 8.00,"Cc1cccc(-c2[nH]c(NCc3ccc(Cl)c(Cl)c3)nc2-c2ccn3nccc3c2)n1 [Example 10, N-(3,4-dichlorobenzyl)-5-(6-methylpyridin-2-yl)-4-(pyrazolo[1,5-a]pyridin-5-yl)-1H-imidazol-2-amine]"
11,7.00 to 8.00,"Cc1cccc(-c2[nH]c(NCc3ccccc3F)nc2-c2ccn3ncnc3c2)n1 [Example 11, 4-([1,2,4]triazolo[1,5-a]pyridin-7-yl)-N-(2-fluorobenzyl)-5-(6-methylpyridin-2-yl)-1H-imidazol-2-amine]"
12,7.00 to 8.00,"Cc1cccc(-c2[nH]c(NCc3cccc(F)c3)nc2-c2ccn3ncnc3c2)n1 [Example 12, 4-([1,2,4]triazolo[1,5-a]pyridin-7-yl)-N-(3-fluorobenzyl)-5-(6-methylpyridin-2-yl)-1H-imidazol-2ylamine]"
13,7.00 to 8.00,"Cc1cccc(-c2[nH]c(NCc3cccc(Cl)c3)nc2-c2ccn3ncnc3c2)n1 [Example 13, 4-([1,2,4]triazolo[1,5-a]pyridin-7-yl)-N-(3-chlorobenzyl)-5-(6-methylpyridin-2-yl)-1H-imidazol-2-amine]"
14,> 8.00,"Cc1cccc(-c2[nH]c(NCc3ccc(Cl)cc3)nc2-c2ccn3ncnc3c2)n1 [Example 14, 4-([1,2,4]triazolo[1,5-a]pyridin-7-yl)-N-(4-chlorobenzyl)-5-(6-methylpyridin-2-yl)-1H-imidazol-2-amine]"
15,7.00 to 8.00,"Cc1cccc(-c2[nH]c(NCc3cccc(F)c3F)nc2-c2ccn3ncnc3c2)n1 [Example 15, 4-([1,2,4]triazolo[1,5-a]pyridin-7-yl)-N-(2,3-difluorobenzyl)-5-(6-methylpyridin-2-yl)-1-imidazol-2-ylamine]"
16,7.00 to 8.00,"Cc1cccc(-c2[nH]c(NCc3c(F)cccc3F)nc2-c2ccn3ncnc3c2)n1 [Example 16, 4-([1,2,4]triazolo[1,5-a]pyridin-7-yl)-N-(2,6-difluorobenzyl)-5-(6-methylpyridin-2-yl)-1H-imidazol-2-amine]"
17,7.00 to 8.00,"Cc1cccc(-c2[nH]c(NCc3ccc(Cl)cc3F)nc2-c2ccn3ncnc3c2)n1 [Example 17, 4-([1,2,4]triazolo[1,5-a]pyridin-7-yl)-N-(4-chloro-2-fluorobenzyl)-5-(6-methylpyridin-2-yl)-1H-imidazol-2-amine]"
18,> 8.00,"Cc1cccc(-c2[nH]c(NCc3cccc(Cl)c3F)nc2-c2ccn3ncnc3c2)n1 [Example 18, 4-([1,2,4]triazolo[1,5-a]pyridin-7-yl)-N-(3-chloro-2-fluorobenzyl)-5-(6-methylpyridin-2-yl)-1H-imidazol-2-amine]"
19,7.00 to 8.00,"Cc1cccc(-c2[nH]c(NCc3cc(Cl)ccc3F)nc2-c2ccn3ncnc3c2)n1 [Example 19, 4-([1,2,4]triazolo[1,5-a]pyridin-7-yl)-N-(5-chloro-2-fluorobenzyl)-5-(6-methylpyridin-2-yl)-1H-imidazol-2-amine]"
20,> 8.00,"Cc1cccc(-c2[nH]c(NCc3ccc(Cl)c(Cl)c3)nc2-c2ccn3ncnc3c2)n1 [Example 20, 4-([1,2,4]triazolo[1,5-a]pyridin-7-yl)-N-(3,4-dichlorobenzyl)-5-(6-methylpyridin-2-yl)-1H-imidazol-2-amine]"
21,7.00 to 8.00,"Cc1cccc(-c2[nH]c(NCc3ccc(Cl)cc3Cl)nc2-c2ccn3ncnc3c2)n1 [Example 21, 4-([1,2,4]triazolo[1,5-a]pyridin-7-yl)-N-(2,4-dichlorobenzyl)-5-(6-methylpyridin-2-yl)-1H-imidazol-2-amine]"
22,7.00 to 8.00,"COc1cccc(CNc2nc(-c3ccn4ncnc4c3)c(-c3cccc(C)n3)[nH]2)c1F [Example 22, 4-([1,2,4]triazolo[1,5-a]pyridin-7-yl)-N-(2-fluoro-3-methoxybenzyl)-5-(6-methylpyridin-2-yl)-1H-imidazol-2-amine]"
23,7.00 to 8.00,"COc1ccc(CNc2nc(-c3ccn4ncnc4c3)c(-c3cccc(C)n3)[nH]2)c(F)c1 [Example 23, 4-([1,2,4]triazolo[1,5-a]pyridin-7-yl)-N-(2-fluoro-4-methoxybenzyl)-5-(6-methylpyridin-2-yl)-1H-imidazol-2-amine]"
24,< 7.00,"CNC(=O)c1cccc(CNc2nc(-c3ccn4ncnc4c3)c(-c3cccc(C)n3)[nH]2)c1 [Example 24, 3-((4-([1,2,4]triazolo[1,5-a]pyridin-7-yl)-5-(6-methylpyridin-2-yl)-1H-imidazol-2ylamino)methyl)-N-methylbenzamide]"
25,< 7.00,"CNC(=O)c1ccc(CNc2nc(-c3ccn4ncnc4c3)c(-c3cccc(C)n3)[nH]2)cc1 [Example 25, 4-((4-([1,2,4]triazolo[1,5-a]pyridin-7-yl)-5-(6-methylpyridin-2-yl)-1H-imidazol-2-ylamino)methyl)-N-methylbenzamide]"
26,7.00 to 8.00,"Cc1cccc(-c2[nH]c(NC(=O)c3ccccc3F)nc2-c2ccn3ncnc3c2)n1 [Example 26, N-(4-([1,2,4]triazolo[1,5-a]pyridin-7-yl)-5-(6-methylpyridin-2-yl)-1H-imidazol-2-yl)-2-fluorobenzamide]"
27,7.00 to 8.00,"Cc1cccc(-c2[nH]c(NC(C)c3ccccc3F)nc2-c2ccn3ncnc3c2)n1 (stereo not drawn) [Example 27, 4-([1,2,4]tiazolo[1,5-a]pyridin-7-yl)-N-(1-(2-fluorophenyl)ethyl)-5-(6-methylpyridin-2-yl)-1H-imidazol-2-amine]"
